T1: αvβ3 integrin, P06756
T1 chain 1: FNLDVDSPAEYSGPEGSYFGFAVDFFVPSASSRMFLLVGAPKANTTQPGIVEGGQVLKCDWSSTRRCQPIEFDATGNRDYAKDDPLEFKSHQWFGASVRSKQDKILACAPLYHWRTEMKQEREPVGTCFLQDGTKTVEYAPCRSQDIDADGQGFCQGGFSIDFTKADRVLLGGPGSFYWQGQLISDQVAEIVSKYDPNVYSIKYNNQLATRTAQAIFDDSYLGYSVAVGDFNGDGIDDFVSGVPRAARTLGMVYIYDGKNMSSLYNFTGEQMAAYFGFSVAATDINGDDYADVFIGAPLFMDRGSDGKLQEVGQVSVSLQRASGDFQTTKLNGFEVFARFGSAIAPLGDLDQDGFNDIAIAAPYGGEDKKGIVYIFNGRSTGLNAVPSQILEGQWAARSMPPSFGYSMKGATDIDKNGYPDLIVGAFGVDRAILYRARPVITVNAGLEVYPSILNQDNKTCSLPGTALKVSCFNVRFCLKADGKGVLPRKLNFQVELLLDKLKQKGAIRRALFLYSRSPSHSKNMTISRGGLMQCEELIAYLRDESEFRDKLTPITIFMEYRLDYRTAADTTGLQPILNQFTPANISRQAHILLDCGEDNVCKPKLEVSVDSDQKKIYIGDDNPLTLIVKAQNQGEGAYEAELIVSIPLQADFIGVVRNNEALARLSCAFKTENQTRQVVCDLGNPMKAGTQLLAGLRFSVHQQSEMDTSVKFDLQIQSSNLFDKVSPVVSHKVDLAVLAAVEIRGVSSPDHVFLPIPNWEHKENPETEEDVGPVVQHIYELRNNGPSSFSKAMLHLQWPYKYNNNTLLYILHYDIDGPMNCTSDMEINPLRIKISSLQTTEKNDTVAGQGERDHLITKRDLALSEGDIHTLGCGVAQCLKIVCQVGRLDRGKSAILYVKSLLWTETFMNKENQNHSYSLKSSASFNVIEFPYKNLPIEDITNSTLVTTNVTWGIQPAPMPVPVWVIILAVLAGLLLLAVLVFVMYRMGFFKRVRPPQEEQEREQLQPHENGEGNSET
T1 chain 2: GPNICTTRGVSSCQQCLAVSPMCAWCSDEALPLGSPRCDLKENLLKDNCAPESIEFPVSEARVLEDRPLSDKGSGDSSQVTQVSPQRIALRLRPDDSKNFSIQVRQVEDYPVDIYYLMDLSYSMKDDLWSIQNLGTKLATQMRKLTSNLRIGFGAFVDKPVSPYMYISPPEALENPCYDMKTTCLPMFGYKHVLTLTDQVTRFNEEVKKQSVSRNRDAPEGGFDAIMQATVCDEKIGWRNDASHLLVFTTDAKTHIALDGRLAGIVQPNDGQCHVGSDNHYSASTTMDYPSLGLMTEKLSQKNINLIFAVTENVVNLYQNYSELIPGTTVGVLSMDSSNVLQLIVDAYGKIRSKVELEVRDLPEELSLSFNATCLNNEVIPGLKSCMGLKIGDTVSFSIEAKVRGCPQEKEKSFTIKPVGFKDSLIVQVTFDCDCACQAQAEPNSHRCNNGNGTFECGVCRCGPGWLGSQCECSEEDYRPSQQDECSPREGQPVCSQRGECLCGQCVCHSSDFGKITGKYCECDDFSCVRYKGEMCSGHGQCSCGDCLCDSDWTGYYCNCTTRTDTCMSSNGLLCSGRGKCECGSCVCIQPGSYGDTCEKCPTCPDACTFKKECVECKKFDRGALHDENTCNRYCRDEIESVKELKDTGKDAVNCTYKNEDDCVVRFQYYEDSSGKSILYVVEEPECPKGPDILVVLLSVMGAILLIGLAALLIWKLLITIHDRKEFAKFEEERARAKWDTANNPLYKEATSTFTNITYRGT


What was measured:
αvβ3 integrin = αvβ3 integrin (Homo sapiens, UniProt P05106+P06756); assay: Fluorescence polarization; assay type: binding
αvβ3 integrin, P06756 = biological target: T1, αvβ3 integrin, P06756; assay: fluorescence polarisation

Row | Ki (αvβ3 integrin, P06756) [nM] | Molecule | Ki (αvβ3 integrin) [nM] | binding to the αvβ3 integrin (in words) (αvβ3 integrin; FP competition experiment, Figure 5 legend)
1 |  | CSCC[C@H](NC(=O)[C@H]1CSC[C@H](NC(=O)[C@H](C)NC(=O)[C@H](C)N)C(=O)N[C@@H](Cc2c[nH]cn2)C(=O)N[C@@H](CCCNC(=N)N)C(=O)NCC(=O)N[C@@H](CC(=O)O)C(=O)N2CCC[C@H]2C(=O)N1)C(=O)N1CCC[C@H]1C(=O)N1CCC[C@H]1C(=O)N[C@@H]1CSC[C@@H](C(=O)O)NC(=O)[C@H](CCC(=O)O)NC(=O)CNC(=O)[C@H](CCC(=O)O)NC(=O)[C@H](Cc2c[nH]c3ccccc23)NC(=O)[C@H](Cc2ccc(O)cc2)NC1=O [Pcn2.8(5RGD)] | > 2000 | poor binding
2 | 18 | CHNHAPSMPPSYWRGDC (modifications not checked) [linear/unmodified Pcn2.8(16RGD) core peptide] |  | 

Reference: publication PMC6525029 (ACS synthetic biology, 2019)
